The text below walks through data of patent publication US20220096664A1, “STABILIZED FORMULATIONS CONTAINING IODINATED CONTRAST AGENTS AND CYCLODEXTRINS” (Verrow Pharmaceuticals, Inc., priority 2012, published 2022).

Read-outs that look alike come from different tables or passages of the source.

Data set [1] can be described thus: Photostability: iodide formed after visible light irradiation. Type of data set: physicochemical. Particulars: 10 mM TRIS; for Iodide formed: 50 mM agent, pH 7.4, VIS 72 h. How it is done: (§1) Aqueous solutions comprising iodinated contrast agents were prepared and evaluated in a photolysis chamber as described in the ICH guidance document, Q1B Photostability Testing of New Drug Substances and Products, available from the US Food and Drug Administration, incorporated herein by reference. The solutions were placed in 1 cm×1 cm (3 mL) quartz cuvettes having 2 clear sides and 2 sides etched. Lids were placed on the cuvettes and sealed with a wrap of Parafilm® around the joint. The cuvettes were placed in a photolysis chamber, upright on a flat surface beneath and centered between two horizontal 24 inch fluorescent lamps, (GE, black light F20T12, 20 watt for ultraviolet, or Philips F20T12/CW, 20 watt for visible) placed 6 cm apart. The cuvettes were positioned such that their two clear sides were facing the two lamps.
(§2) Cuvettes were spaced ˜2 cm from each other, and no closer than 15 cm from the ends of the lamps. This positioning allowed reproducible light exposure to all cuvettes.
(§3) The lamps were switched on and the solutions irradiated for 18 to 24 hours for the ultraviolet (UV) lamps or 72 to 90 hours for the visible (VIS) light lamps. At the end of the selected irradiation time, the cuvettes were removed from the photolysis chamber and mixed by inversion 2-times. The caps were then removed and 40 microliter aliquots taken and diluted with 1 mL of an aqueous solution containing ˜0.9 mg/mL sodium thiosulfate. The thiosulfate solution converted any I2, IO3^−, and I3^− present in the solution tor such that total iodine species could be determined in one assay.
(§4) The diluted solutions were assayed by high pressure liquid chromatography (HPLC) using a 4.6×250 mm, C-18, 5 micron particle size, reversed phase column with detection at 280 nm for the contrast agent and 230 nm for the thiosulfate and the iodide ion (r). A mobile phase of 30:70 methanol:aqueous buffer (50 mM KH2PO4+7 mL/L 40% tetrabutyl ammonium hydroxide) at 0.75 mL/min was used for elution. Injection volume was 20 microliters. External standards were prepared containing each contrast agent, potassium iodide, and sodium thiosulfate solution and analyzed along with the irradiated samples. The results were reported as weight percentage iodide formed (mg iodide/mg contrast agent times 100).
(§5) The absorbance readings at 400 nm due to light exposure were plotted against time of exposure and the resulting correlation used to determine the UV and VIS light exposure. A change in absorbance reading of 0.45 was assumed equivalent to 200 watt hours/square meter for the UV light and a change of 0.51 was assumed equivalent to 1.2 million lux hours for the VIS light. The UV lamps provided 6.62 watts/square meter and the VIS lamps provided 7180 lux.
Aqueous solutions were prepared containing 473 mM iohexol (180 mg 1/mL), 10 mM tromethamine HCl buffer (TRIS), with and without various SCDs. The pH of the solutions was adjusted to 7.4 with 0.1N hydrochloric acid. Aliquots of the solutions were irradiated with ultraviolet (UV) light for 18 hours (119 watt hours/m^2) and other aliquots irradiated with visible (VIS) light for 90 hours (0.65 million lux hours). The solutions were then processed, analyzed and reported as in Example 2, with the exception that the iohexol peak was measured at 300 nm for both samples and standards. Results of the study are presented in the table below along with the SCD used. The SCDs included derivatives prepared from alpha, beta, and gamma CD to evaluate the effect of CD cavity size. Various substituents, including one derivative containing more than one type of substituent, and degrees of substitution (DS) were also evaluated.
Aqueous solutions were prepared containing 50 mM iodinated contrast agent, 10 mM tromethamine HCl buffer (TRIS), with and without sulfobutylether beta-cyclodextrin with an average degree of substitution-7 (SBE7-β-CD), or 2-hydroxypropyl beta-cyclodextrin with an average degree of substitution of ˜6.3 (HP6.3-β-CD) or ˜4.3 (HP4.3-β-CD). […]

The format of data set [2] is physicochemical. Particulars: for Iodide formed: 50 mM agent, 10 mM TRIS. As for the experimental part: as §3, §4
(§6) Aqueous solutions were prepared containing 50 mM iodinated contrast agent, 10 mM tromethamine HCl buffer (TRIS), with and without sulfobutylether beta-cyclodextrin with an average degree of substitution-7 (SBE7-β-CD), or 2-hydroxypropyl beta-cyclodextrin with an average degree of substitution of ˜6.3 (HP6.3-β-CD) or ˜4.3 (HP4.3-β-CD). The iohexol solution was prepared by dissolving solid iohexol powder while the other solutions were prepared by diluting commercial formulated products and adding sufficient TRIS buffer to reach 10 mM. The pH of the solutions was adjusted to 7.4 with 0.1N hydrochloric acid.
Aliquots of the solutions were irradiated with visible light for 72 hours (0.52 million lux hours). Other aliquots were autoclaved for 20 minutes at 121° C., cooled to room temperature and then irradiated with ultraviolet light for 18 hours (119 watt hours/m2). The solutions were then processed, analyzed and reported as in Example 2, except that the chromatographic peaks of the contrast agents were evaluated at 300 nm for both samples and standards.
Aqueous solutions were prepared containing 50 mM iohexol, 0, 2.5, 5, 7.5, or 10 mM tromethamine HCl (TRIS) buffer, with and without 2.5 mM sulfobutylether beta-cyclodextrin with an average degree of substitution-7 (SBE7-β-CD). The pH of the solutions was adjusted to 7.4 with 0.1N hydrochloric acid and the solutions were transferred to glass vials. The vials were stoppered, crimp-capped and autoclaved for 20 minutes at 121° C. The pH of the autoclaved solutions was measured after the solutions were at room temperature.
Aliquots of the autoclaved solutions were irradiated with visible light for 72 hours (0.52 million lux hours) and other aliquots irradiated with ultraviolet light for 18 hours (119 watt hours/m2). The solutions were then processed, analyzed and reported as in Example 2, except that the chromatographic peak of the iohexol was evaluated at 300 nm for both samples and standards.
Aqueous formulations were prepared containing iodinated contrast agents at concentrations used commercially in medical procedures. Sulfobutylether-cyclodextrin, sodium salt, average degree of substitution ˜7 (SBE7CD) was added at varying agent:CD mole ratios. The formulations were placed in glass vials, sealed with rubber stoppers and aluminum crimps, and autoclaved at 121° C. for 20 minutes. […]

The format of data set [3] is physicochemical. As for the experimental part: as §3, §4, §6
Aliquots of the solutions were irradiated with visible light for 72 hours (0.52 million lux hours). Other aliquots were autoclaved for 20 minutes at 121° C., cooled to room temperature and then irradiated with ultraviolet light for 18 hours (119 watt hours/m2). The solutions were then processed, analyzed and reported as in Example 2, except that the chromatographic peaks of the contrast agents were evaluated at 300 nm for both samples and standards. […]
Aqueous formulations were prepared containing iodinated contrast agents at concentrations used commercially in medical procedures. Sulfobutylether-cyclodextrin, sodium salt, average degree of substitution ˜7 (SBE7CD) was added at varying agent:CD mole ratios. The formulations were placed in glass vials, sealed with rubber stoppers and aluminum crimps, and autoclaved at 121° C. for 20 minutes. Aliquots of the autoclaved solutions were exposed to UV light for 24 hours (159 watt hours/m^2 or VIS light for 72 hours (0.52 million lux hours) as in Example 2. The solutions were then processed, analyzed and reported as in Example 2, with the following two exceptions; 1) the chromatographic peaks of the contrast agents were evaluated at 300 nm for both samples and standards, and 2) only 20 microliter sample aliquots were taken and diluted for HPLC analysis due to the higher concentrations used in this study. Results of the study are presented in the table below along with the solution compositions.

Data set [4] can be described thus: Photostability: iodide formed after UV light irradiation. Type of data set: physicochemical. The conditions noted are these: 473 mM iohexol, 10 mM TRIS, pH 7.4, UV 18 h. How it is done: as §1, §2, §3, §4, §5
Aqueous solutions were prepared containing 50 mM contrast agent by diluting commercially available solutions with water. Tromethamine HCl buffer (TRIS), was added to solutions as necessary to increase the TRIS content to that of the commercial product before dilution.
SCD was added to the solutions at various mole ratios and the pH of the solutions adjusted to 7.4 with 0.1N hydrochloric acid or 0.1N sodium hydroxide. The solutions were irradiated with UV light for 18 hours (119 watt hours/m^2) then processed, analyzed and reported as in Example 2. The SCDs evaluated were sulfobutyl ether beta-cyclodextrin with an average degree of substitution of 7 (SBE-704CD), and two 2-hydroxypropyl beta-cyclodextrin derivatives having 6.3 (HP-6.3n/CD) and 4.3 (HP-4.3-βCD) average degrees of substitution.
Aqueous solutions were prepared containing 50 mM contrast agent by diluting commercially available solutions with distilled water. Tromethamine HCl buffer (TRIS), was added to some solutions to increase the buffer content.
The solutions were divided and SBE-7-CD added to one aliquot at a contrast agent:SCD mole ratio of 1:1. The pH of the solutions was adjusted to 5, 6, 7, 7.4 or 8 with 0.1N hydrochloric acid or sodium hydroxide. […]

For data set [5] the following is noted: contrast media solutions; cited from earlier work.
The mark [6] stands for this setting: pH 7.4, autoclaved then UV 18 h, agent:SBE7-β-CD 1:0.1.
[7] abbreviates: pH 7.4, autoclaved then UV 18 h, no SCD (1:0).

As to `CNC(=O)c1c(I)c(C(=O)NCC(=O)Nc2c(I)c(C(=O)O)c(I)c(C(=O)NCCO)c2I)c(I)c(N(C)C(C)=O)c1I` [Ioxaglate, ioxaglate], the Iodide formed in data set [1] (agent:SBE7-β-CD 1:0.1) came to 0.211 wt %; in data set [1] (no SCD (1:0)), 0.231 wt %; in data set [2] (setting [6]) it was 0.332 wt %; in data set [2] (setting [7]) it was 0.392 wt %. The “Iodide Formed, UV” value in data set [2] (Ioxaglate 320 mg I/mL, pH 7.0, agent:SBE7CD 1:0.05, autoclaved then UV 24 h) came out at 0.0845 wt %; in data set [2] (Ioxaglate 320 mg I/mL, pH 7.0, no SCD (1:0), autoclaved then UV 24 h) it was 0.114 wt %. In addition, the “Iodide Formed, VIS” value in data set [2] (Ioxaglate 320 mg I/mL, pH 7.0, agent:SBE7CD 1:0.05, autoclaved then VIS 72 h) was 0.0175 wt %; in data set [2] (Ioxaglate 320 mg I/mL, pH 7.0, no SCD (1:0), autoclaved then VIS 72 h) it was 0.0197 wt %. The “Iodide Formed, Autoclaved” value in data set [3] (Ioxaglate 320 mg I/mL (393 mg ioxaglate meglumine and 196 mg ioxaglate sodium), pH 7.0, no SCD (1:0)) is on record as 0.00457 wt %; in data set [3] (Ioxaglate 320 mg I/mL, pH 7.0, agent:SBE7CD 1:0.05) it was 0.00329 wt %.

On to “sulfobutylether 3.5-ethylether 3.5-beta-cyclodextrin [SBE-EE-βCD]”, for which, in data set [1] (473 mM iohexol, pH 7.4, VIS 90 h, iohexol:SCD 1:0.05), the “I- formed, VIS” value is on record as 0.0584 wt %. Moreover, the “% Change in iodide degradants (Vis)” value in data set [1] (473 mM iohexol, pH 7.4, VIS 90 h, iohexol:SCD 1:0.05 vs control) is given as −5.3% (Vis). The “I- formed, UV” value in data set [4] (iohexol:SCD 1:0.05) was determined as 0.0825 wt %. In data set [4] (iohexol:SCD 1:0.05 vs control), the “% Change in iodide degradants (UV)” value is given as −22.9% (UV).

As for `CNC(=O)c1c(I)c(NC(C)=O)c(I)c(C(=O)O)c1I` [iothalamate sodium], the “degradation in solution after exposure to ultraviolet light” value in data set [5] was “formation of iodine and iodide ions”.

On to `C[C@H](O)C(=O)Nc1c(I)c(C(=O)NC(CO)CO)c(I)c(C(=O)NC(CO)CO)c1I` [Iopamidol, iopamidol], for which the Iodide formed in data set [1] (agent:SBE7-β-CD 1:0.1) is 0.355 wt %; in data set [1] (no SCD (1:0)), 0.356 wt %; in data set [2] (setting [6]), 0.470 wt %; in data set [2] (setting [7]), 0.540 wt %; in data set [2] (pH 7.4, autoclaved then visible light, agent:SBE7-β-CD 1:0.1), 0.344 wt %; in data set [2] (pH 7.4, autoclaved then visible light, no SCD (1:0)), 0.348 wt %. Also, the “stabilization against degradation from autoclaving+visible light irradiation” value in data set [2] was “stabilized all formulations except iopamidol”. Also, the “Iodide Formed, UV” value is on record as 0.145 wt % in data set [2] (Iopamidol 200 mg I/mL, pH 7, agent:SBE7CD 1:0.05, autoclaved then UV 24 h) and 0.150 wt % in data set [2] (Iopamidol 200 mg I/mL, pH 7, no SCD (1:0), autoclaved then UV 24 h). In addition, the “Iodide Formed, VIS” value stood at 0.0574 wt % in data set [2] (Iopamidol 200 mg I/mL, pH 7, agent:SBE7CD 1:0.05, autoclaved then VIS 72 h) and 0.0570 wt % in data set [2] (Iopamidol 200 mg I/mL, pH 7, no SCD (1:0), autoclaved then VIS 72 h). For the same compound, the “Iodide Formed, Autoclaved” value was 0.00338 wt % in data set [3] (Iopamidol 200 mg I/mL, pH 7, agent:SBE7CD 1:0.05) and 0.00347 wt % in data set [3] (Iopamidol 200 mg I/mL, pH 7, no SCD (1:0)).
